Tested on: 12-weeks-old ob/ob islets
Test: Caspase 3/7 activity assay (apoptosis)
Type: cell-based, mouse
Conditions: β-cells from 12-weeks old ob/ob mice incubated overnight with the Ca2+-channel blocker
Protocol: ApoCIII expression was measured by real-time qPCR to determine the efficacy of apoCIII knockdown in cultured islets (n=4). […] (c) 25 mM KCl was used to induce depolarization and subsequent Ca^2+ influx (n=9-10). (d) Caspase 3/7 activity in ob/ob islets isolated from animals at 4-, 8- and 12-weeks of age (n=4). (e) Decrease in caspase activity in β-cells from 12-weeks old ob/ob mice either incubated overnight with the Ca^2+-channel blocker verapamil (left column) or exposed to apoCIII antisense (right column) (n=4). Data presented as mean±SEM. *P<0.05, ** P<0.01 by student's t-test or ANOVA (Tukey's post-hoc).
Caspase assay. Activity of capase 3/7 was determined using SensoLyte™ Homogeneous Rh110 Caspase 3/7 assay kit according to manufacturer's instructions, with modifications (AnaChem, USA). Briefly, islets or cells were harvested, lysed using lysis buffer (AnaChem, USA) and the protein quantified using BCA method. 10 μg of protein was loaded in a black 384-well plate and topped up with the appropriate amount of assay buffer (AnaChem, USA) containing Rh110 Caspase 3/7 Substrate. Plate was incubated in the dark for 1 hour at 24° C. Fluorescence intensity at Ex/Em=490/520nm was measured to determine the relative caspase activity.
It was determined if reducing endogenous apoCIII affects apoptosis in ob/ob islets. […]

COc1ccc(CCN(C)CCCC(C#N)(c2ccc(OC)c(OC)c2)C(C)C)cc1OC (stereo not shown) [verapamil]
reduction of caspase activity: 15%

Reference: patent US20170037118A1, “Methods for treating and/or limiting development of diabetes” (Biocrine AB, priority 2013, published 2017)
